Reference: paper PMC7321161, “The Intriguing Effects of Substituents in the N-Phenethyl Moiety of Norhydromorphone: A Bifunctional Opioid from a Set of “Tail Wags Dog” Experiments” (Molecules, 2020)
Values joined by “and” are separate entries in the source; they are usually repeats but may differ in a detail not shown here. Identical values can stand only once.

Columns and labels:
κ-opioid receptor (KOR) = target: T1, κ-opioid receptor (KOR) (Rattus norvegicus, UniProt P34975); assay: Opioid receptor binding, κ sites ([3H]U69,593), rat brain homogenate; details: for Ki: KOR Binding (Ki), whole rat brain excluding cerebellum, [3H]U69,593, Ki ± SEM; for KOR Binding, exploratory binding assay: radioligand displacement at 100 nM
T1 construct: Frozen whole rat brains excluding cerebellum were thawed on ice; from tissue; host or cells: whole rat brain excluding cerebellum, membrane homogenate

[1] = target: T2, human δ-receptor (OPRMD1) (Homo sapiens, UniProt P41143); assay: cell-based; type: cell-based; details: for Emax: CHO-K1, read-out: DOR cAMP % Efficacy; for EC50: DOR cAMP Agonist Potency ± SEM
T2 construct: host or cells: HitHunter CHO-K1 cells

[2] = target: T3, human κ-opioid receptor (OPRK1) (Homo sapiens, UniProt P41145); assay: cell-based; details: for Emax: CHO-K1, read-out: KOR cAMP % Efficacy; for EC50: KOR cAMP Agonist Potency ± SEM
T3 construct: host or cells: HitHunter CHO-K1 cells

δ-opioid receptor (DOR) = target: T4, δ-opioid receptor (DOR) (Rattus norvegicus, UniProt P33533); assay: Opioid receptor binding, δ sites ([3H]DADLE), rat brain homogenate
T4 construct: Frozen whole rat brains excluding cerebellum were thawed on ice; from tissue; host or cells: whole rat brain excluding cerebellum, membrane homogenate

μ-opioid receptor (MOR) = target: T5, μ-opioid receptor (MOR) (Rattus norvegicus, UniProt P33535); assay: Opioid receptor binding, μ sites ([3H]DAMGO), rat brain homogenate
T5 construct: Frozen whole rat brains excluding cerebellum were thawed on ice; from tissue; host or cells: whole rat brain excluding cerebellum, membrane homogenate

[3] = target: T6, human μ-opioid receptor β-arrestin-2 (Homo sapiens, UniProt P35372); assay: cell-based; details: for Emax: read-out: MOR Mediated β-arrestin Recruitment (% Control, Emax DAMGO)
T6 construct: enzyme fragment for EFC (β-galactosidase ProLink fragment, by own knowledge of the PathHunter system); host or cells: PathHunter CHO cells

rat MOR = target: T7, rat MOR (Rattus norvegicus, UniProt P33535); assay: Stimulation of [35S]GTPγS binding, C6 glioma cell membranes expressing MOR; type: biochemical; details: for MOR % Stimulation, [35S]GTPγS: compared to standard maximal DAMGO; for MOR EC50, [35S]GTPγS: C6 cells expressing MOR, mean ± SEM, DNS = no stimulation; for MOR activity type in the [35S]GTPγS assay: antagonist activity assumed from high MOR affinity and lack of stimulation
T7 construct: expressed in transfected cells; host or cells: C6 rat glioma cells, stably transfected; membranes

[4] = target: T8, human μ-opioid receptor (OPRM1) (Homo sapiens, UniProt P35372); assay: cell-based; details: for EC50: MOR cAMP Agonist Potency ± SEM; for Emax: OPRM1, read-out: MOR cAMP % Efficacy
T8 construct: host or cells: HitHunter CHO-K1 cells

human KOR = target: T9, human KOR (Homo sapiens, UniProt P41145); assay: Stimulation of [35S]GTPγS binding, CHO cell membranes expressing KOR; type: biochemical; details: for KOR % Stimulation, [35S]GTPγS: compared to standard maximal U69593
T9 construct: expressed in transfected cells; membranes

rat DOR = target: T10, rat DOR (Rattus norvegicus, UniProt P33533); assay: Stimulation of [35S]GTPγS binding, C6 glioma cell membranes expressing DOR; type: biochemical; details: for EC50: DOR EC50, [35S]GTPγS, C6 cells expressing DOR, mean ± SEM; for DOR % Stimulation, [35S]GTPγS: compared to standard maximal DPDPE
T10 construct: expressed in transfected cells; host or cells: C6 rat glioma cells, stably transfected; membranes
T10 sequence (P33533 whole entry): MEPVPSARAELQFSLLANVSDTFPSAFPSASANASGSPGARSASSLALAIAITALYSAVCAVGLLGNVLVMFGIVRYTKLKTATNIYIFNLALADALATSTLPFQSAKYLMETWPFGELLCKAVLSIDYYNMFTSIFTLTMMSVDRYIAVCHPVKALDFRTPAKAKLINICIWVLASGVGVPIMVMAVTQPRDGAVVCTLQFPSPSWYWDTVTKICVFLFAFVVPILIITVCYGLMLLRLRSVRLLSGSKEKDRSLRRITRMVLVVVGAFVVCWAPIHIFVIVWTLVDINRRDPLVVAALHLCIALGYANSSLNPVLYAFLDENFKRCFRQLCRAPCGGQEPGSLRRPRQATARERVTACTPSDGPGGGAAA

T1 sequence (P34975 whole entry): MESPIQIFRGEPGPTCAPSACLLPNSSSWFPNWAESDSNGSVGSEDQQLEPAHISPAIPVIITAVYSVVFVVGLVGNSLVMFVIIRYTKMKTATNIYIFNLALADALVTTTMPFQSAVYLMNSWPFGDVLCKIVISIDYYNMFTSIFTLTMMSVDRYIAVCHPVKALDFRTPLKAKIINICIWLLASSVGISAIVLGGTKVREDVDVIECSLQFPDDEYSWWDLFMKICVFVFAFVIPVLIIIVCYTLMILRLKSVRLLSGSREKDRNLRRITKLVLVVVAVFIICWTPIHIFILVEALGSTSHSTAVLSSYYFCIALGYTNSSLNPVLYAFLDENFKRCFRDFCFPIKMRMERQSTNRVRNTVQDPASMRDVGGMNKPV
T3 sequence (P41145 whole entry): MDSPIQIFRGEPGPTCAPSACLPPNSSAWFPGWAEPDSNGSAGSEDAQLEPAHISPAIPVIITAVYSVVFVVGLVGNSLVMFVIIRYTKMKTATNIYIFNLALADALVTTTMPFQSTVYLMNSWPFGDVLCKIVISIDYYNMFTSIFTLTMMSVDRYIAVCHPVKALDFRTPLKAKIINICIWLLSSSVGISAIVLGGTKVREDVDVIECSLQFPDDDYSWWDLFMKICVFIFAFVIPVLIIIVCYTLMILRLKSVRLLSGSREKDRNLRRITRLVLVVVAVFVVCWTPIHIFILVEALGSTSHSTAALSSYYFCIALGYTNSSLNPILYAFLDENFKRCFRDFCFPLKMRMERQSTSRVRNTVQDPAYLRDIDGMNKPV
T9 sequence (P41145 whole entry): as above
T4 sequence (P33533 whole entry): as the sequence (P33533 whole entry) above
T8 sequence (P35372 whole entry): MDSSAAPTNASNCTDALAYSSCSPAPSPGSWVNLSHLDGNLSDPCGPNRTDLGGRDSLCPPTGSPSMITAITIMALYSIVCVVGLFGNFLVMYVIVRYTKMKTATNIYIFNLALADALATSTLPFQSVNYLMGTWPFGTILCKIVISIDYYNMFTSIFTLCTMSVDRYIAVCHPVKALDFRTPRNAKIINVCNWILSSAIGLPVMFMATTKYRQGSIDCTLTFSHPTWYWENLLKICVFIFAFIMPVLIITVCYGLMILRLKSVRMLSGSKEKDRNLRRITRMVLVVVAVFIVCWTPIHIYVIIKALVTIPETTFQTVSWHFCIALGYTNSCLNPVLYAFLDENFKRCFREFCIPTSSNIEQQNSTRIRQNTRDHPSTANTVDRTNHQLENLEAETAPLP
T6 sequence (P35372 whole entry, the tested form may be a part): as the sequence (P35372 whole entry) above
T5 sequence (P33535 whole entry): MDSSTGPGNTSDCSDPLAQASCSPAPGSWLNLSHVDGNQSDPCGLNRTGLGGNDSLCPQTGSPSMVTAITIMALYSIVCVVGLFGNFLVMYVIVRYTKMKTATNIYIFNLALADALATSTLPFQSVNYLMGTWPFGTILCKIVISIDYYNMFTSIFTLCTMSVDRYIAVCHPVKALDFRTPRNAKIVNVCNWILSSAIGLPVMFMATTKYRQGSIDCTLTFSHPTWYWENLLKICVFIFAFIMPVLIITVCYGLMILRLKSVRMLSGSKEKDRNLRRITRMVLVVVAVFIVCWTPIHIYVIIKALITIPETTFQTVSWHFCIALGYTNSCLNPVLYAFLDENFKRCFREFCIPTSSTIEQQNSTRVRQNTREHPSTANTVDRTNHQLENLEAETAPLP
T7 sequence (P33535 whole entry): as above
T2 sequence (P41143 whole entry): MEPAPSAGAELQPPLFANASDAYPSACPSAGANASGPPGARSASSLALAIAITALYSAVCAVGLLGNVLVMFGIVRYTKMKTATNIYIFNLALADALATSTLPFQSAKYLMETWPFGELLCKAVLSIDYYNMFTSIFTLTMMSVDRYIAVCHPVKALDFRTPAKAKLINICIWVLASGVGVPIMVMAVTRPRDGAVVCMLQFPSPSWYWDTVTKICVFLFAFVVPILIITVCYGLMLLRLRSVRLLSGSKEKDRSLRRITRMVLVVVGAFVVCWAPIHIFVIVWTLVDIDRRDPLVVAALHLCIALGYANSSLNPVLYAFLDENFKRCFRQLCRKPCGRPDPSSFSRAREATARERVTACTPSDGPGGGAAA

Structure (SMILES)	Ki (κ-opioid receptor (KOR)) [nM]	Emax [1] [%]	EC50 [1]	Emax [2] [%]	EC50 [2]	Ki (δ-opioid receptor (DOR)) [nM]	Ki (μ-opioid receptor (MOR)) [nM]	Bias Factor [3]	EC50 [3] [nM]	Emax [3] [%]	EC50 (rat MOR) [nM]	MOR % Stimulation, [35S]GTPγS (rat MOR)	EC50 [4]	Emax [4] [%]	MOR activity type in the [35S]GTPγS assay (rat MOR)	EC50 (rat DOR)	DOR % Stimulation, [35S]GTPγS (rat DOR)	further results
N#CCN1CC[C@]23c4c5ccc(O)c4O[C@H]2C(=O)CCC3C1C5 (stereo partly drawn) [Compound 1a, 2-((7aR,12bS)-9-Hydroxy-7-oxo-1,2,4,4a,5,6,7,7a-octahydro-3H-4,12-methanobenzofuro[3,2-e]isoquinolin-3-yl)acetonitrile]	90.3 ± 6.6	77	254 nM	99.3	109 nM	141 ± 2.8	4.51 ± 0.27	2.18	424	33.4	425 ± 133	47% and 47.1 ± 3.3%	4.16 nM	102	–	–	–	–
N#CCCCN1CCC23c4c5ccc(O)c4OC2C(=O)CCC3C1C5 (stereo not drawn) [Compound 1b]	2.71 ± 0.22	–	–	–	–	72.2 ± 1.2	4.25 ± 0.29	–	–	–	–	–	–	–	MOR antagonist	–	–	EC50 (human KOR): 24.3 ± 5 nM; KOR % Stimulation, [35S]GTPγS (human KOR): 89.6 ± 0.9%; MOR EC50, [35S]GTPγS (rat MOR): DNS
O=C1CCC2C3Cc4ccc(O)c5c4[C@@]2(CCN3CC=Cc2ccccc2)[C@H]1O5 (stereo partly drawn) [Compound 1c, (7aR,12bS)-3-Cinnamyl-9-hydroxy-2,3,4,4a,5,6-hexahydro-1H-4,12-methanobenzofuro[3,2-e]isoquinolin-7(7aH)-one]	–	96.5	1700 nM	–	> 10000 nM	–	90.5 ± 11	1.35	584	4.1	–	–	76.7 nM	103	–	–	–	KOR Binding, exploratory binding assay (κ-opioid receptor (KOR)): NT (NT = not tested—inactive (<50% activity at 100 nM concentration in exploratory binding assays (displaced less than half of radioligand)); DOR Binding, exploratory binding assay (δ-opioid receptor (DOR); radioligand displacement at 100 nM): NT (NT = not tested—inactive (<50% activity at 100 nM concentration in exploratory binding assays (displaced less than half of radioligand))
O=C1CCC2C3Cc4ccc(O)c5c4[C@@]2(CCN3CC2Cc3ccccc3C2)[C@H]1O5 (stereo partly drawn) [Compound 1d, (7aR,12bS)-3-((2,3-Dihydro-1H-inden-2-yl)methyl)-9-hydroxy-2,3,4,4a,5,6-hexahydro-1H-4,12-methano-benzofuro[3,2-e]isoquinolin-7(7aH)-one]	–	94.4	596 nM	–	> 10000 nM	844 ± 107	40.1 ± 5.9	2.53	130	1.9	–	–	18.3 nM	95.2	–	–	–	KOR Binding, exploratory binding assay (κ-opioid receptor (KOR)): NT (NT = not tested—inactive (<50% activity at 100 nM concentration in exploratory binding assays (displaced less than half of radioligand))
O=C1CCC2C3Cc4ccc(O)c5c4[C@@]2(CCN3CCc2ccc([N+](=O)[O-])cc2)[C@H]1O5 (stereo partly drawn) [Compound 2a, (7aR,12bS)-9-Hydroxy-3-(4-nitrophenethyl)-2,3,4,4a,5,6-hexahydro-1H-4,12-methanobenzofuro[3,2-e]-isoquinolin-7(7aH)-one]	56 ± 8.2	96	0.53 nM	63	74.6 nM	6.07 ± 0.86	0.52 ± 0.01	4.51	6.38	26.2	1.9 ± 0.5	26.6 ± 1.4%	0.05 nM	102	potent MOR agonist	227 ± 53 nM	64.3 ± 3.3%	–
O=C1CCC2C3Cc4ccc(O)c5c4C2(CCN3CCc2cccc([N+](=O)[O-])c2)C1O5 [Compound 2b, (7aR,12bS)-9-Hydroxy-3-(3-nitrophenethyl)-2,3,4,4a,5,6-hexahydro-1H-4,12-methanobenzofuro[3,2-e]-0isoquinolin-7(7aH)-one]	65.4 ± 7.7	95.3	46.7 nM	–	> 10000 nM	92.5 ± 7.3	5.88 ± 0.38	3.38	116	6	–	–	5.2 nM and 5.22 nM	102	MOR antagonist	–	–	MOR EC50, [35S]GTPγS (rat MOR): DNS
Cc1ccc(CCN2CC[C@]34c5c6ccc(O)c5O[C@H]3C(=O)CCC4C2C6)cc1 (stereo partly drawn) [Compound 2c, (7aR,12bS)-9-Hydroxy-3-(4-methylphenethyl)-2,3,4,4a,5,6-hexahydro-1H-4,12-methanobenzofuro[3,2-e]-isoquinolin-7(7aH)-one]	44 ± 3.8	95	1 nM	99.4	8.7 nM and 8.71 nM	6.34 ± 0.65	0.86 ± 0.12	1.12	5.6	46.5	1.9 ± 0.7	55.6 ± 2.1%	0.08 nM	102	potent partial MOR agonist	23.1 ± 6.9 nM	95% and 95.4 ± 3.8%	EC50 (human KOR): 38.1 ± 10.6 nM; KOR % Stimulation, [35S]GTPγS (human KOR): 31.4 ± 4.2%
COc1ccc(CCN2CC[C@]34c5c6ccc(O)c5O[C@H]3C(=O)CCC4C2C6)cc1 (stereo partly drawn) [Compound 2d, (7aR,12bS)-9-Hydroxy-3-(4-methoxyphenethyl)-2,3,4,4a,5,6-hexahydro-1H-4,12-methanobenzofuro[3,2-e]-isoquinolin-7(7aH)-one]	26.3 ± 1.9	97.5	2.7 nM and 2.71 nM	96.2	7.4 nM and 7.38 nM	5.43 ± 0.47	0.67 ± 0.05	2.69	11.2	23	–	–	0.13 nM	103	MOR antagonist	33.6 ± 6.4 nM	49% and 48.9 ± 3.2%	EC50 (human KOR): 5.9 ± 1.7 nM; KOR % Stimulation, [35S]GTPγS (human KOR): 21.8% and 21.8 ± 0.8%; MOR EC50, [35S]GTPγS (rat MOR): DNS
O=C1CCC2C3Cc4ccc(O)c5c4[C@@]2(CCN3CCc2ccc(C(F)(F)F)cc2)[C@H]1O5 (stereo partly drawn) [Compound 2h, (7aR,12bS)-9-Hydroxy-3-(4-(trifluoromethyl)phenethyl)-2,3,4,4a,5,6-hexahydro-1H-4,12-methanobenzofuro-[3,2-e]isoquinolin-7(7aH)-one]	–	94.3	2.41 nM	95.7	98.2 nM	16.4 ± 0.4	2.7 ± 0.17	0.56	10.3	62.4	3.4 ± 1.2	72.2 ± 5.5%	0.21 nM	102	–	36 nM and 35.7 nM	82.3 ± 2.3%	KOR Binding, exploratory binding assay (κ-opioid receptor (KOR)): NT (NT = not tested—inactive (<50% activity at 100 nM concentration in exploratory binding assays (displaced less than half of radioligand))
O=C(O)C(=O)O.O=C1CCC2[C@H]3Cc4ccc(O)c5c4[C@@]2(CCN3CCc2ccc(Br)cc2)[C@H]1O5 (stereo partly drawn) [Compound 2j, (4R,7aR,12bS)-3-(4-Bromophenethyl)-9-hydroxy-2,3,4,4a,5,6-hexahydro-1H-4,12-methanobenzofuro[3,2-e]-isoquinolin-7(7aH)-one oxalate]	–	96	0.97 nM	99	20 nM and 20.1 nM	–	–	0.43	4.9	53	–	–	0.15 nM	103	–	–	–	EC50 δ/μ ratio in the cAMP assay [1]: 6.5
O=C1CCC2C3Cc4ccc(O)c5c4[C@@]2(CCN3CCc2c(Cl)cccc2Cl)[C@H]1O5 (stereo partly drawn) [Compound 2k, (7aR,12bS)-3-(2,6-Dichlorophenethyl)-9-hydroxy-2,3,4,4a,5,6-hexahydro-1H-4,12-methanobenzofuro[3,2-e]isoquinolin-7(7aH)-one]	–	95.8	21.9 nM	74	1880 nM	–	–	1.04	13.1	24.6	–	–	0.37 nM	101	–	–	–	–
O=C1CCC2C3Cc4ccc(O)c5c4C2(CCN3CCc2ccccc2)C1O5 (stereo not drawn) [Compound S11, N-Phenethylnorhydromorphone]	–	95.1	1.54 nM	80.6	23 nM and 22.7 nM	–	–	0.47	1.71	61.9	–	–	0.04 nM	102	–	–	–	EC50 δ/μ ratio in the cAMP assay [1]: 38.5 and 39
C[C@@H](NC(=O)[C@@H](N)Cc1ccc(O)cc1)C(=O)NCC(=O)N(C)[C@@H](Cc1ccccc1)C(=O)NCCO [DAMGO, [D-Ala^2, N-MePhe^4, Gly-ol]-enkephalin, reference compound]	–	–	–	–	–	–	–	–	–	–	–	–	–	102	–	–	–	–
